Measurements published in ChEMBL document CHEMBL1201862, “PubChem BioAssay data set” (2004).
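Dose response: 5 concentrations. Exposure: 48 h. Format: 96-well plates. Endpoint: linear interpolation; highest concentration if not reached. Abbreviation: GI50, concentration required for 50% inhibition of growth.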 Activity calls are given as the source filed them. No stated cut-off is given here; in the data, active = GI50 up to about 1.1 µM and inactive = higher.

Legend:
Assay in all cases: inhibition of tumour cell growth, NCI panel, 48 h
DU-145 = system: DU-145
NCI-H522 = system: NCI-H522
HCT-116 = system: HCT-116
M14 = system: M14
SF-539 = system: SF-539
U-251 = system: U-251
SK-OV-3 = system: SK-OV-3
Malme-3M = system: Malme-3M
IGROV-1 = system: IGROV-1
OVCAR-3 = system: OVCAR-3
OVCAR-5 = system: OVCAR-5
786-0 = system: 786-0
OVCAR-4 = system: OVCAR-4
MDA-N = system: MDA-N
HL-60 = system: HL-60
NCI-H226 = system: NCI-H226
CAKI-1 = system: CAKI-1
Hs-578T = system: Hs-578T
UACC-257 = system: UACC-257
LOX IMVI = system: LOX IMVI

SMILES	GI50 (DU-145)	GI50 (NCI-H522)	GI50 (HCT-116)	GI50 (M14)	GI50 (SF-539)	GI50 (U-251)	GI50 (SK-OV-3)	GI50 (Malme-3M)	GI50 (IGROV-1)	GI50 (OVCAR-3)	GI50 (OVCAR-5)	GI50 (786-0)	GI50 (OVCAR-4)	GI50 (MDA-N)	GI50 (HL-60)	GI50 (NCI-H226)	GI50 (CAKI-1)	GI50 (Hs-578T)	GI50 (UACC-257)	GI50 (LOX IMVI)
CC(O)c1cc2c(s1)C(=O)c1ccsc1C2=O (centres undefined)	0.0489 µM (active)	0.117 µM (active)	0.21 µM (active)	0.0593 µM (active)	0.0509 µM (active)	0.0944 µM (active)	2.7 µM (inactive)	0.0197 µM (active)	0.468 µM (active)	0.0522 µM (active)	0.14 µM (active)	0.665 µM (active)	0.212 µM (active)	0.0139 µM (active)	0.0144 µM (active)	0.48 µM (active)	0.695 µM (active)	0.107 µM (active)	0.0167 µM (active)	0.0125 µM (active)
O=C1c2ccccc2C(=O)c2c1ccc(C(=O)O)c2-c1ccc2ccccc2c1	16.2 µM (inactive)	23.7 µM (inactive)	20.7 µM (inactive)	20.5 µM (inactive)	25.8 µM (inactive)	21.9 µM (inactive)	31 µM (inactive)	24.1 µM (inactive)	13.7 µM (inactive)	18.2 µM (inactive)	22.5 µM (inactive)	28.2 µM (inactive)	30.8 µM (inactive)	26.5 µM (inactive)	27.9 µM (inactive)	21.8 µM (inactive)	29.3 µM (inactive)	23.9 µM (inactive)	49.8 µM (inactive)	18.9 µM (inactive)
COc1ccc2nc3c([N+](=O)[O-])ccc(NCCCN(C)C)c3c(N)c2c1	1.67 µM (inactive)	0.474 µM (active)	0.316 µM (active)	1.9 µM (inactive)	1.78 µM (inactive)	1.57 µM (inactive)	1.45 µM (inactive)	1.42 µM (inactive)	1.21 µM (inactive)	1.49 µM (inactive)	1.43 µM (inactive)	1.22 µM (inactive)	1.5 µM (inactive)	1.82 µM (inactive)	1.61 µM (inactive)	1.99 µM (inactive)	1.81 µM (inactive)	2.78 µM (inactive)	> 10 µM (inactive)	1.59 µM (inactive)
CS(=O)(=O)OCC1CCCCCCCCCCC12SCCCS2 (centres undefined)	> 100 µM (inactive)	> 100 µM (inactive)	> 100 µM (inactive)	> 100 µM (inactive)	> 100 µM (inactive)	> 100 µM (inactive)	> 100 µM (inactive)	> 100 µM (inactive)	> 100 µM (inactive)	> 100 µM (inactive)	> 100 µM (inactive)	> 100 µM (inactive)	> 100 µM (inactive)	> 100 µM (inactive)	> 100 µM (inactive)	> 100 µM (inactive)	> 100 µM (inactive)	> 100 µM (inactive)	> 100 µM (inactive)	> 100 µM (inactive)
CC1CC(=O)Nc2ccccc2N1C(=O)C1CC1 (centres undefined)	> 100 µM (inactive)	> 100 µM (inactive)	> 100 µM (inactive)	> 100 µM (inactive)	> 100 µM (inactive)	> 100 µM (inactive)	> 100 µM (inactive)	> 100 µM (inactive)	> 100 µM (inactive)	> 100 µM (inactive)	> 100 µM (inactive)	> 100 µM (inactive)	> 100 µM (inactive)	> 100 µM (inactive)	> 100 µM (inactive)	> 100 µM (inactive)	> 100 µM (inactive)	> 100 µM (inactive)	> 100 µM (inactive)	> 100 µM (inactive)
O=C(NCCCNCCCCNCCCNC(=O)c1cc(-c2ccccc2)nc2ccccc12)c1cc(-c2ccccc2)nc2ccccc12	17.6 µM (inactive)	2.01 µM (inactive)	3.09 µM (inactive)	2.15 µM (inactive)	1.9 µM (inactive)	1.66 µM (inactive)	2.27 µM (inactive)	1.95 µM (inactive)	2.16 µM (inactive)	2.66 µM (inactive)	2.05 µM (inactive)	1.69 µM (inactive)	2.64 µM (inactive)	1.77 µM (inactive)	1.79 µM (inactive)	1.83 µM (inactive)	20.3 µM (inactive)	1.75 µM (inactive)	3.74 µM (inactive)	1.64 µM (inactive)
OC(c1cc(C23CC4CC(CC(C4)C2)C3)nc2c(Cl)cc(Cl)cc12)C1CCCCN1 (centres undefined)	1.77 µM (inactive)	1.57 µM (inactive)	1.36 µM (inactive)	1.8 µM (inactive)	2.13 µM (inactive)	1.51 µM (inactive)	1.77 µM (inactive)	1.81 µM (inactive)	1.77 µM (inactive)	1.78 µM (inactive)	1.79 µM (inactive)	1.57 µM (inactive)	1.69 µM (inactive)	1.68 µM (inactive)	2.11 µM (inactive)	2.07 µM (inactive)	1.69 µM (inactive)	2.03 µM (inactive)	1.97 µM (inactive)	1.49 µM (inactive)
Cc1ccc(OCC2=NN3C(=O)/C(=C\c4ccc([N+](=O)[O-])o4)SC3N2)cc1 (centres undefined)	5.68 µM (inactive)	1.82 µM (inactive)	3.63 µM (inactive)	8.47 µM (inactive)	2 µM (inactive)	15.8 µM (inactive)	16.3 µM (inactive)	2.66 µM (inactive)	10.5 µM (inactive)	1.95 µM (inactive)	19.2 µM (inactive)	10.2 µM (inactive)	2.99 µM (inactive)	4.3 µM (inactive)	1.59 µM (inactive)	15.4 µM (inactive)	14.6 µM (inactive)	21.7 µM (inactive)	12.8 µM (inactive)	3.66 µM (inactive)
N#CCCN(CCC#N)c1ccc(/C=C2\SC(=S)NC2=O)cc1	> 100 µM (inactive)	> 100 µM (inactive)	> 100 µM (inactive)	> 100 µM (inactive)	> 100 µM (inactive)	20.3 µM (inactive)	> 100 µM (inactive)	> 100 µM (inactive)	> 100 µM (inactive)	> 100 µM (inactive)	> 100 µM (inactive)	30 µM (inactive)	30.8 µM (inactive)	> 100 µM (inactive)	> 100 µM (inactive)	> 100 µM (inactive)	23 µM (inactive)	> 100 µM (inactive)	> 100 µM (inactive)	34.6 µM (inactive)
Nn1c(S)nnc1C12CC3CC(CC(C3)C1)C2	> 100 µM (inactive)	> 100 µM (inactive)	> 100 µM (inactive)	> 100 µM (inactive)	> 100 µM (inactive)	> 100 µM (inactive)	> 100 µM (inactive)	> 100 µM (inactive)	> 100 µM (inactive)	> 100 µM (inactive)	> 100 µM (inactive)	> 100 µM (inactive)	> 100 µM (inactive)	> 100 µM (inactive)	> 100 µM (inactive)	> 100 µM (inactive)	> 100 µM (inactive)	> 100 µM (inactive)		> 100 µM (inactive)
O=C(O)CCC(=O)Nc1ccc2c(c1)S(=O)(=O)N(CC(=O)O)C2=O	> 100 µM (inactive)	> 100 µM (inactive)	> 100 µM (inactive)	> 100 µM (inactive)	> 100 µM (inactive)	> 100 µM (inactive)	> 100 µM (inactive)	39.2 µM (inactive)	> 100 µM (inactive)	> 100 µM (inactive)	> 100 µM (inactive)	> 100 µM (inactive)	> 100 µM (inactive)	> 100 µM (inactive)	> 100 µM (inactive)	> 100 µM (inactive)	> 100 µM (inactive)	> 100 µM (inactive)	> 100 µM (inactive)	> 100 µM (inactive)
O=[N+]([O-])c1c(O)c2nonc2c2nn(-c3ccccc3)nc12	> 100 µM (inactive)	40 µM (inactive)	> 100 µM (inactive)	> 100 µM (inactive)	> 100 µM (inactive)	> 100 µM (inactive)	> 100 µM (inactive)	> 100 µM (inactive)	> 100 µM (inactive)	> 100 µM (inactive)	> 100 µM (inactive)	> 100 µM (inactive)	83.4 µM (inactive)	> 100 µM (inactive)	> 100 µM (inactive)	6.85 µM (inactive)	> 100 µM (inactive)	65.5 µM (inactive)	> 100 µM (inactive)	> 100 µM (inactive)
C#Cc1cccc(N2C(=O)CCC2=O)c1	14.4 µM (inactive)	4.17 µM (inactive)	9.08 µM (inactive)	7.62 µM (inactive)	21.5 µM (inactive)	1.67 µM (inactive)	21 µM (inactive)	14.7 µM (inactive)	21.5 µM (inactive)	18.9 µM (inactive)	16.7 µM (inactive)	18 µM (inactive)	13.1 µM (inactive)	14.2 µM (inactive)	2.25 µM (inactive)	17.5 µM (inactive)	13.6 µM (inactive)	17.3 µM (inactive)	15.6 µM (inactive)	16.8 µM (inactive)
CC(O)c1cc2c(s1)C(=O)c1c(C(C)O)csc1C2=O (centres undefined)	0.119 µM (active)	0.305 µM (active)	0.14 µM (active)	0.126 µM (active)	0.21 µM (active)	0.316 µM (active)	0.401 µM (active)	0.0329 µM (active)	0.152 µM (active)	0.0342 µM (active)	0.277 µM (active)	0.392 µM (active)	0.177 µM (active)	0.0226 µM (active)	0.0113 µM (active)	0.264 µM (active)	0.382 µM (active)	0.318 µM (active)	0.0803 µM (active)	0.075 µM (active)
